Laboratory results: ChEMBL document CHEMBL1201862, “PubChem BioAssay data set” (2004)
Structures can show the parent of a compound that is named as a salt.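 Values below derive from 48-hour exposures of cells grown in 96-well plates, with endpoints linearly interpolated between the two concentrations bracketing the appropriate inhibition level. Abbreviation: GI50, concentration required for 50% inhibition of growth.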 Active and inactive are the calls of the source. Rule as the data show it: active = GI50 up to about 1.1 µM and inactive = higher.

Columns and labels:
Assay in all cases: NCI tumour cell line growth inhibition, 48 h
HOP-62 = system: HOP-62
HOP-92 = system: HOP-92
UO-31 = system: UO-31
MDA-N = system: MDA-N
M14 = system: M14
OVCAR-5 = system: OVCAR-5
HT-29 = system: HT-29
A498 = system: A498
SK-MEL-28 = system: SK-MEL-28
U-251 = system: U-251
KM12 = system: KM12
NCI-H460 = system: NCI-H460
IGROV-1 = system: IGROV-1
T47D = system: T47D
Hs-578T = system: Hs-578T
HCT-15 = system: HCT-15
ACHN = system: ACHN
DU-145 = system: DU-145
SK-MEL-5 = system: SK-MEL-5
NCI-H522 = system: NCI-H522

Structure (SMILES)	GI50 (HOP-62)	GI50 (HOP-92)	GI50 (UO-31)	GI50 (MDA-N)	GI50 (M14)	GI50 (OVCAR-5)	GI50 (HT-29)	GI50 (A498)	GI50 (SK-MEL-28)	GI50 (U-251)	GI50 (KM12)	GI50 (NCI-H460)	GI50 (IGROV-1)	GI50 (T47D)	GI50 (Hs-578T)	GI50 (HCT-15) [µM]	GI50 (ACHN)	GI50 (DU-145)	GI50 (SK-MEL-5)	GI50 (NCI-H522)
CCOC(=O)c1csc(NC(=O)CN2CCCCC2)n1	> 100 µM (inactive)	> 100 µM (inactive)	> 100 µM (inactive)	> 100 µM (inactive)	> 100 µM (inactive)	> 100 µM (inactive)	> 100 µM (inactive)	> 100 µM (inactive)	> 100 µM (inactive)	> 100 µM (inactive)	> 100 µM (inactive)	> 100 µM (inactive)	> 100 µM (inactive)	> 100 µM (inactive)	> 100 µM (inactive)	> 100	> 100 µM (inactive)	> 100 µM (inactive)	> 100 µM (inactive)	
COC(=O)NN1C(=O)C(=P(c2ccccc2)(c2ccccc2)c2ccccc2)C(C(=O)OC)=C1C		12.6 µM (inactive)	> 100 µM (inactive)		> 100 µM (inactive)		> 100 µM (inactive)	> 100 µM (inactive)	> 100 µM (inactive)	> 100 µM (inactive)		> 100 µM (inactive)	> 100 µM (inactive)			> 100	> 100 µM (inactive)		> 100 µM (inactive)	> 100 µM (inactive)
COc1ccc(N[C@H](C[S+]([O-])c2ccc(C)cc2)C(F)(F)C(F)(F)F)cc1 (some centres undefined)	57.5 µM (inactive)	26.1 µM (inactive)	> 100 µM (inactive)	> 100 µM (inactive)	97.3 µM (inactive)	> 100 µM (inactive)	> 100 µM (inactive)	> 100 µM (inactive)	> 100 µM (inactive)	37.4 µM (inactive)	> 100 µM (inactive)	> 100 µM (inactive)	> 100 µM (inactive)	14.1 µM (inactive)	36.6 µM (inactive)	> 100	> 100 µM (inactive)	> 100 µM (inactive)	68.1 µM (inactive)	71.4 µM (inactive)
CCCCOc1ccc2c(c1)CC[C@@H]1[C@@H]2CC[C@]2(C)C(=O)N(CCCC)C(=O)C[C@@H]12	> 100 µM (inactive)	> 100 µM (inactive)	> 100 µM (inactive)	> 100 µM (inactive)	> 100 µM (inactive)	> 100 µM (inactive)	> 100 µM (inactive)	> 100 µM (inactive)		> 100 µM (inactive)	> 100 µM (inactive)	> 100 µM (inactive)	> 100 µM (inactive)	> 100 µM (inactive)	> 100 µM (inactive)	> 100		> 100 µM (inactive)	26.3 µM (inactive)	> 100 µM (inactive)
NCCCCNOCCCN		> 100 µM (inactive)	> 100 µM (inactive)	> 100 µM (inactive)	> 100 µM (inactive)	42.8 µM (inactive)	> 100 µM (inactive)		> 100 µM (inactive)	> 100 µM (inactive)	> 100 µM (inactive)	> 100 µM (inactive)	> 100 µM (inactive)	> 100 µM (inactive)	> 100 µM (inactive)		> 100 µM (inactive)	> 100 µM (inactive)	> 100 µM (inactive)	61.5 µM (inactive)
NCc1ccccc1-c1c2nc(c(-c3ccccc3CN)c3ccc([nH]3)c(-c3ccccc3CN)c3nc(c(-c4ccccc4CN)c4ccc1[nH]4)C=C3)C=C2	22.1 µM (inactive)	7.08 µM (inactive)	18.5 µM (inactive)		21 µM (inactive)	13.9 µM (inactive)	28.2 µM (inactive)		19 µM (inactive)	18.5 µM (inactive)	20 µM (inactive)	19.1 µM (inactive)	23.7 µM (inactive)			22	16.4 µM (inactive)		22.9 µM (inactive)	
COC(=O)C1=C(O)C(C(=O)OC)[C@@]2(O)[C@@H](C(=O)OC)[C@H](C)C[C@@H]1[C@@H]2C(=O)OC (some centres undefined)	31.8 µM (inactive)		21.5 µM (inactive)	15.2 µM (inactive)	20.6 µM (inactive)	30.5 µM (inactive)	27.6 µM (inactive)	15.5 µM (inactive)	46.2 µM (inactive)	20.5 µM (inactive)	23.5 µM (inactive)	20 µM (inactive)		46.8 µM (inactive)	19.9 µM (inactive)	25.9	59.8 µM (inactive)	20.2 µM (inactive)		25.2 µM (inactive)
CCCCCCCCCCCCCCCCCCN(C)CC(COP(=O)([O-])OCC[N+](C)(C)C)OC (centres undefined)	9.38 µM (inactive)	9.77 µM (inactive)	29.5 µM (inactive)	> 100 µM (inactive)	9.84 µM (inactive)	4.51 µM (inactive)	4.94 µM (inactive)	13.6 µM (inactive)	38.3 µM (inactive)	4.9 µM (inactive)	3.52 µM (inactive)	4.25 µM (inactive)	3.1 µM (inactive)	> 80.7 µM (inactive)	> 46.1 µM (inactive)	7.67	22.6 µM (inactive)	31.5 µM (inactive)	27.9 µM (inactive)	9.51 µM (inactive)
CC(C)(C)N(Cc1ccoc1)C(=O)/C=C\[S+]([O-])c1ccccc1 (centres undefined)	16.6 µM (inactive)	15 µM (inactive)	14.5 µM (inactive)	11.5 µM (inactive)	17.2 µM (inactive)	25.2 µM (inactive)	22.9 µM (inactive)	31 µM (inactive)	21.8 µM (inactive)	15.5 µM (inactive)	16.6 µM (inactive)		15 µM (inactive)	14.6 µM (inactive)	28.4 µM (inactive)	19.2	25.9 µM (inactive)	12.5 µM (inactive)	13.4 µM (inactive)	17.5 µM (inactive)
CSc1ccccc1P(c1ccccc1SC)c1ccccc1SC	25.4 µM (inactive)	> 100 µM (inactive)	> 100 µM (inactive)	> 100 µM (inactive)	> 100 µM (inactive)	> 100 µM (inactive)		> 100 µM (inactive)	> 100 µM (inactive)	31.6 µM (inactive)	> 100 µM (inactive)			2.62 µM (inactive)	98.2 µM (inactive)	> 100	> 100 µM (inactive)	> 100 µM (inactive)	> 100 µM (inactive)	
O=C1CC2CC3OC3[C@H]3c4cc5c(cc4C(=O)N1C23)OCO5 (some centres undefined)	> 100 µM (inactive)	> 100 µM (inactive)	> 100 µM (inactive)		> 100 µM (inactive)	> 100 µM (inactive)	> 100 µM (inactive)		> 100 µM (inactive)		> 100 µM (inactive)	> 100 µM (inactive)	> 100 µM (inactive)			> 100	> 100 µM (inactive)			> 100 µM (inactive)
CCCCc1oc2ccccc2c1C(=O)c1cc(I)c(OCCN(CC)CC)c(I)c1 [AMIODARONE HYDROCHLORIDE]	10.6 µM (inactive)	3.86 µM (inactive)				5.21 µM (inactive)	4.42 µM (inactive)	5.02 µM (inactive)	4.8 µM (inactive)	4.16 µM (inactive)	5.51 µM (inactive)	4.09 µM (inactive)	11.1 µM (inactive)			4.12			4.7 µM (inactive)	5.06 µM (inactive)
